The structures appear in SMILES notation.

Here are results for two compounds from US20250281516A1, “NUTRACEUTICAL FORMULATION FOR POLYCYSTIC OVARY SYNDROME” (priority 2019, published 2025).

One assay deals with PCOS symptoms. The assay can be described thus: Physician's further feedback in general on PCOS symptom control. Further details: species or system women. To be noted: in vivo.
In the next assay the test system is patients (ovulation). The conditions noted are these: inositol alone administered; cited from earlier work.
The next assay relates to infertile PCOS women. To be noted: inositol and folic acid administered; cited from earlier work.

In the case of `O[C@H]1[C@H](O)[C@@H](O)[C@H](O)[C@@H](O)[C@H]1O` [inositol], the “effectiveness compared with the combination formulation” value in the assay on PCOS symptoms is “not as effective”. The “patients showing improvement in ovulation” value in the assay on patients (ovulation) is “about 62%”. The restoration of ovulation result with infertile PCOS women is recorded as “about 70%”.

Turning to `O[C@H]1[C@H](O)[C@@H](O)[C@H](O)[C@@H](O)[C@H]1O` [myo-inositol], the “duration of treatment after which most PCOS symptoms were controlled” value with PCOS symptoms was more than 6 month.
